Measured values reported in ChEMBL document CHEMBL1129685, “Mechanism-based inhibition of L-pipecolate oxidase by 4,5-dehydro-L-pipecolic acid” (J Med Chem, 1996).

Molecular target: T1, Peroxisomal sarcosine oxidase (Homo sapiens) (UniProt Q9P0Z9)
T1 sequence (whole entry): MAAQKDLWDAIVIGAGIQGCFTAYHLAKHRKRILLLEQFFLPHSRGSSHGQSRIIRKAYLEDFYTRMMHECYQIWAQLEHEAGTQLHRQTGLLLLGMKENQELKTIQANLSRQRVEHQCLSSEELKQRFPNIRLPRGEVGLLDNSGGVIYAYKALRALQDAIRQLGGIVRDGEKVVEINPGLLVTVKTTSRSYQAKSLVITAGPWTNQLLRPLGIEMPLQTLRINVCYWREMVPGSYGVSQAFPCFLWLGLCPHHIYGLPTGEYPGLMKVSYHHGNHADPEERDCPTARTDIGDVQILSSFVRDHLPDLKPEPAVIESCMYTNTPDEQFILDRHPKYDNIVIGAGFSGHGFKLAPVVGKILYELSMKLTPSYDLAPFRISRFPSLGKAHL
Assay: Kinetic parameter inactivation constant was determined on L-pipecolate oxidase from Rhesus monkey
Conditions: Cercopithecidae; target entry is the homologue from another species

Kiact: 2 min⁻¹
SMILES: O=C(O)[C@@H]1CCCCN1
